Results reported in article PMC13050904, “Sensitivity to cuticular hydrocarbons across the odorant receptor family in the Indian jumping ant, Harpegnathos saltator” (Frontiers in Insect Science, 2026).

Assays:
HsOr152 = biological target: T1, HsOr152 (Harpegnathos saltator, UniProt Z9SO02V7Q0); assay: single-sensillum recording of Drosophila ab2A neurons expressing the receptor; format: cell-based; settings: 20 nmol dosed on heated cartridge; with DmOrco; excitatory; solvent (pentane) response subtracted
T1 construct: V subfamily OR; full-length, UAS-HsOr152 (pUASg.attB, attP40) in D. melanogaster ab2A neurons by Orco-GAL4; complex with endogenous DmOrco (D. melanogaster); with Odorant receptor coreceptor (Drosophila melanogaster)
T1 sequence (Z9SO02V7Q0 1-385): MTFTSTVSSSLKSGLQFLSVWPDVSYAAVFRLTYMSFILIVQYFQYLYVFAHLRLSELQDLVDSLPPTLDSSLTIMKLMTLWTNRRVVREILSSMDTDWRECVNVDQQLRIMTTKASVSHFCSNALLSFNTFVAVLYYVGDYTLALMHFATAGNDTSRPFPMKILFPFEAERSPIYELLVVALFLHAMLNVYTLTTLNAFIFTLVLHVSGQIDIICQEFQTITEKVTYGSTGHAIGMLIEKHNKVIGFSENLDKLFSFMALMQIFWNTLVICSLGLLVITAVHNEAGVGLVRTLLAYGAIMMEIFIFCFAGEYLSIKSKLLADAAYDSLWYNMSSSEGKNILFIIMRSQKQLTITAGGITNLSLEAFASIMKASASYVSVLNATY
T1 sequence (Q9VNB5 1-486 partner): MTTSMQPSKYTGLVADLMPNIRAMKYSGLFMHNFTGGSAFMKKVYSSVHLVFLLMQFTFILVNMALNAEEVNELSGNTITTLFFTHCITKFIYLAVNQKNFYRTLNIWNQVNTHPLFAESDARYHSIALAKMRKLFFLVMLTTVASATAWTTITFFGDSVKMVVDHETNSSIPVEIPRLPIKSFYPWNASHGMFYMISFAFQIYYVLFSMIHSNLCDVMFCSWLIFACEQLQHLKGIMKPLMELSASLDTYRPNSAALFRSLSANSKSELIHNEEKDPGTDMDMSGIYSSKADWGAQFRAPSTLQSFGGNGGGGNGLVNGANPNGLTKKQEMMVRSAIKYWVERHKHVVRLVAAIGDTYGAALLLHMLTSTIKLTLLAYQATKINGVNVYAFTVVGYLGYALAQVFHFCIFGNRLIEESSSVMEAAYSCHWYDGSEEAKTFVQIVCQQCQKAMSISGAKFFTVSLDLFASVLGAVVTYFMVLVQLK

HsOr115 = biological target: T2, HsOr115 (Harpegnathos saltator, UniProt Z9I713BLV2); assay: as above; format: cell-based; settings: 20 nmol dosed on heated cartridge; with DmOrco; excitatory; solvent (pentane) response subtracted
T2 construct: full-length, UAS-HsOr (pUASg.attB, attP40) in D. melanogaster ab2A neurons by Orco-GAL4; complex with endogenous DmOrco (D. melanogaster); with Odorant receptor coreceptor (Drosophila melanogaster)
T2 sequence (Z9I713BLV2 1-398): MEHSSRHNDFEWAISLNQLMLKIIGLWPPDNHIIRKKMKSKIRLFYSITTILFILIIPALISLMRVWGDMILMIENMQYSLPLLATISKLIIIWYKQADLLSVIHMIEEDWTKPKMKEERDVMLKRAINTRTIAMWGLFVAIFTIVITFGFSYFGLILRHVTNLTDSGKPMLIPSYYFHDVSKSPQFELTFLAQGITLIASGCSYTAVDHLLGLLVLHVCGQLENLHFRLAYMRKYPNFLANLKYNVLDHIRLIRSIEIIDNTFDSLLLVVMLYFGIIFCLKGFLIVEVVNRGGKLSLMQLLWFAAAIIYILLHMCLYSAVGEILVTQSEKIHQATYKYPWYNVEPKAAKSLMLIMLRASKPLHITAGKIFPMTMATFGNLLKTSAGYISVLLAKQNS
T2 sequence (Q9VNB5 1-486 partner): T1 sequence (Q9VNB5 1-486 partner)

mean response (Δspikes/s) at 20 nmol (HsOr152)	response (Δspikes/s) at 20 nmol (HsOr115)	Structure (SMILES)
87.5 Δspikes/s		CCCCCCCCCCCCCCCCCCCCCCCCCCCC [C28, octacosane]
	33.0 Δspikes/s	CCCCCCCCCCCCCCCCCCCCCCCCCCCCCC [C30]
